From PubChem BioAssay AID1963969 (Molecular Pharmacology Branch, DTP, NCI, 2024)
Blank lines part the entries; values can stand above or below the compound they belong to.

Tested on: 817829-284-R-J1-PDC multi-cell spheroid viability
Assay: Anticancer human tumor 817829-284-R-J1-PDC patient-derived colon adenocarcinoma cell line growth inhibition [PI3K]
Details: for IC50: curve of first compound; for viability, T/C: stronger effect = lower value
Summary of the method: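 We assembled tumor spheroids that included a stromal compartment of HUVEC and MSCs, then exposed them to targeted agents alone and together with PI3K pathway inhibitors. Concentration series descended by half-log from clinically achievable Cmax levels. Viability served as the endpoint.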

[1] = second compound 0.0316 µM, first compound 0.0316 µM
[2] = second compound 0.0316 µM, first compound 0.1 µM
[3] = second compound 0.0316 µM, first compound 0.316 µM
[4] = second compound 0.0316 µM, first compound 1 µM
[5] = second compound 0.0316 µM, first compound 3.16 µM
[6] = second compound 0.0316 µM, first compound 10 µM
[7] = second compound 0.1 µM, first compound 0.0316 µM
[8] = second compound 0.1 µM, first compound 0.1 µM
[9] = second compound 0.1 µM, first compound 0.316 µM
[10] = second compound 0.1 µM, first compound 1 µM
[11] = second compound 0.1 µM, first compound 3.16 µM
[12] = second compound 0.1 µM, first compound 10 µM
[13] = second compound 0.316 µM, first compound 0.0316 µM
[14] = second compound 0.316 µM, first compound 0.1 µM
[15] = second compound 0.316 µM, first compound 0.316 µM
[16] = second compound 0.316 µM, first compound 1 µM
[17] = second compound 0.316 µM, first compound 3.16 µM
[18] = second compound 0.316 µM, first compound 10 µM
[19] = second compound 1 µM, first compound 0.0316 µM
[20] = second compound 1 µM, first compound 0.1 µM
[21] = second compound 1 µM, first compound 0.316 µM
[22] = second compound 1 µM, first compound 1 µM
[23] = second compound 1 µM, first compound 3.16 µM
[24] = second compound 1 µM, first compound 10 µM
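Note: spheroids exposed to agents for seven days before readout.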
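Throughout, for viability, T/C: percent of vehicle DMSO control viability which is 100%.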

IC50 (second compound 0.00316 µM): 73 nM | IC50 (second compound 0.01 µM): 79.9 nM | IC50 (second compound 0.0316 µM): 45.2 nM | IC50 (second compound 0.1 µM): < 31.6 nM | IC50 (second compound 0.316 µM): < 31.6 nM | IC50 (second compound 1 µM): < 31.6 nM
Structure (SMILES): Cn1ncc(Cl)c1-c1cc(C(=O)NC(CN)Cc2cccc(F)c2)sc1Cl (centres undefined) + COc1c(OCCCN2CCOCC2)ccc2c3n(c(=NC(=O)c4cnc(N)nc4)nc12)CCN3
viability, T/C (second compound 0.00316 µM, first compound 0.0316 µM): 105% | viability, T/C (second compound 0.00316 µM, first compound 0.1 µM): 29.4% | viability, T/C (second compound 0.00316 µM, first compound 0.316 µM): 21.1% | viability, T/C (second compound 0.00316 µM, first compound 1 µM): 20.9% | viability, T/C (second compound 0.00316 µM, first compound 3.16 µM): 18.1% | viability, T/C (second compound 0.00316 µM, first compound 10 µM): 15.5% | viability, T/C (second compound 0.01 µM, first compound 0.0316 µM): 69.6% | viability, T/C (second compound 0.01 µM, first compound 0.1 µM): 46.2% | viability, T/C (second compound 0.01 µM, first compound 0.316 µM): 25.6% | viability, T/C (second compound 0.01 µM, first compound 1 µM): 25.9% | viability, T/C (second compound 0.01 µM, first compound 3.16 µM): 18.3% | viability, T/C (second compound 0.01 µM, first compound 10 µM): 10.8% | viability, T/C [1]: 59% | viability, T/C [2]: 31.2% | viability, T/C [3]: 16.8% | viability, T/C [4]: 20.9% | viability, T/C [5]: 15.8% | viability, T/C [6]: 10.5% | viability, T/C [7]: 25.4% | viability, T/C [8]: 25.4% | viability, T/C [9]: 21.2% | viability, T/C [10]: 15.2% | viability, T/C [11]: 13.9% | viability, T/C [12]: 10.3% | viability, T/C [13]: 20.2% | viability, T/C [14]: 23.4% | viability, T/C [15]: 15.2% | viability, T/C [16]: 12.2% | viability, T/C [17]: 11.1% | viability, T/C [18]: 8.71% | viability, T/C [19]: 9.57% | viability, T/C [20]: 11.1% | viability, T/C [21]: 8.51% | viability, T/C [22]: 9.47% | viability, T/C [23]: 7.2% | viability, T/C [24]: 8.41%

IC50 (second compound 0.0316 µM): > 10000 nM | IC50 (second compound 0.1 µM): 8490 nM | IC50 (second compound 0.316 µM): > 10000 nM | IC50 (second compound 1 µM): > 10000 nM | IC50 (second compound 3.16 µM): > 10000 nM | IC50 (second compound 10 µM): > 10000 nM
Structure (SMILES): CC(Cn1ccc(-c2ccc(C#N)c(Cl)c2)n1)NC(=O)c1cc(C(C)O)[nH]n1 (centres undefined) + CC(Nc1ncnc2nc[nH]c12)c1cc2cccc(Cl)c2c(=O)n1-c1ccccc1
viability, T/C [1]: 71.5% | viability, T/C [2]: 78.8% | viability, T/C [3]: 98.5% | viability, T/C [4]: 64.6% | viability, T/C [5]: 75.5% | viability, T/C [6]: 75.1% | viability, T/C [7]: 106% | viability, T/C [8]: 82.7% | viability, T/C [9]: 95.7% | viability, T/C [10]: 83.2% | viability, T/C [11]: 87.7% | viability, T/C [12]: 43.4% | viability, T/C [13]: 109% | viability, T/C [14]: 82.7% | viability, T/C [15]: 105% | viability, T/C [16]: 66.6% | viability, T/C [17]: 99.8% | viability, T/C [18]: 66.3% | viability, T/C [19]: 83.9% | viability, T/C [20]: 78.8% | viability, T/C [21]: 100% | viability, T/C [22]: 74.5% | viability, T/C [23]: 91.3% | viability, T/C [24]: 102% | viability, T/C (second compound 3.16 µM, first compound 0.0316 µM): 90.9% | viability, T/C (second compound 3.16 µM, first compound 0.1 µM): 53.7% | viability, T/C (second compound 3.16 µM, first compound 0.316 µM): 79.1% | viability, T/C (second compound 3.16 µM, first compound 1 µM): 90.4% | viability, T/C (second compound 3.16 µM, first compound 3.16 µM): 47.5% | viability, T/C (second compound 3.16 µM, first compound 10 µM): 71.4% | viability, T/C (second compound 10 µM, first compound 0.0316 µM): 67.6% | viability, T/C (second compound 10 µM, first compound 0.1 µM): 48.2% | viability, T/C (second compound 10 µM, first compound 0.316 µM): 71.3% | viability, T/C (second compound 10 µM, first compound 1 µM): 51% | viability, T/C (second compound 10 µM, first compound 3.16 µM): 67.5% | viability, T/C (second compound 10 µM, first compound 10 µM): 40.1%
